From ChEMBL document CHEMBL1201862, “PubChem BioAssay data set” (2004) come the findings set out here.

SMILES strings stand for the structures. The source made the active and inactive calls. A value given as a limit tells only on which side of the number the result lay.

Common to all, as to assay type: functional
In experiment [1] the target is T1, Ubiquitin-conjugating enzyme E2 N (Homo sapiens, UniProt P61088).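 Further: Dose-response confirmation in a TR-FRET assay detecting UBC13-driven polyubiquitin chain formation, inhibition measured.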
T1 sequence (P61088 whole entry): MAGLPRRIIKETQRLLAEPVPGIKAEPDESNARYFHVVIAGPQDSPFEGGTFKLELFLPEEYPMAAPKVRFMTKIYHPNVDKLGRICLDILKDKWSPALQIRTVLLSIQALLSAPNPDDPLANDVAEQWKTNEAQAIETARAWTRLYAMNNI

Experiment [2] addresses T2, Multidrug resistance protein CDR2 (Candida albicans (strain SC5314 / ATCC MYA-2876) (Yeast), UniProt P78595). Nature of the experiment: inhibition of Nile Red efflux via Candida CDR2 – S. cerevisiae AD1-8u, singleplex, Cherry Pick1 hits, dose response (AID 588604).
Experiment [3] concerns the target T2, Multidrug resistance protein CDR2. Nature of the experiment: blockers of Nile Red efflux by Candida CDR2 – S. cerevisiae AD1-8u, singleplex, Cherry Pick2 set, dose response (AID 623994). Particulars: read-out: EC50_MICROM.
Experiment [4] addresses Protein kinase C theta type (Homo sapiens, UniProt Q04759). Nature of the experiment: Navigating the Kinome. Panel member name: PRKCQ.
Experiment [5] has as its target Ribosomal protein S6 kinase alpha-3 (Homo sapiens, UniProt P51812).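 Further: measured within a kinome-wide profiling panel.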
Experiment [6] concerns the target Dual specificity mitogen-activated protein kinase kinase 1 (Homo sapiens, UniProt Q02750). Nature of the experiment: Navigating the Kinome. Panel member name: MAP2K1.
The target in experiment [7] is Tyrosine-protein kinase JAK2 (Homo sapiens, UniProt O60674).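 Further: JAK2 tested as one member of a kinase panel.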
For experiment [8], the target named is 5'-AMP-activated protein kinase catalytic subunit alpha-1 (Homo sapiens, UniProt Q13131).
Experiment [9] has as its target ALK tyrosine kinase receptor (Homo sapiens, UniProt Q9UM73).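 Further: ALK tested as one member of a kinase panel screen.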
The target in experiment [10] is Proto-oncogene tyrosine-protein kinase receptor Ret (Homo sapiens, UniProt P07949).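 Further: measured within a kinome-wide profiling panel, RET as the panel member.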
The target in experiment [11] is Tyrosine-protein kinase receptor TYRO3 (Homo sapiens, UniProt Q06418).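 Further: TYRO3 value obtained as one member of a kinome-wide profiling panel.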
The target of experiment [12] is Tyrosine-protein kinase Lck (Homo sapiens, UniProt P06239).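 Further: lck was assayed as one member of a kinase panel.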
Experiment [13] concerns the target Death-associated protein kinase 3 (Homo sapiens, UniProt O43293).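 Further: measured as one member of a kinome-wide profiling panel.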
The target of experiment [14] is Activin receptor type-1 (Homo sapiens, UniProt Q04771). In words: Navigating the Kinome. Panel member name: ACVR1.
Experiment [15] deals with Mitogen-activated protein kinase 8 (Homo sapiens, UniProt P45983).
For experiment [16], the target named is Serine/threonine-protein kinase pim-1 (Homo sapiens, UniProt P11309).
For experiment [17], the target named is Aurora kinase A (Homo sapiens, UniProt O14965).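 Further: value from the Navigating the Kinome kinase panel profiling, panel entry STK6.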
Experiment [18] addresses Serine/threonine-protein kinase PAK 4 (Homo sapiens, UniProt O96013).
Experiment [19] addresses Casein kinase I isoform alpha (Homo sapiens, UniProt P48729).
For experiment [20], the target named is Tyrosine-protein kinase JAK3 (Homo sapiens, UniProt P52333).
In experiment [21] the target is LIM domain kinase 1 (Homo sapiens, UniProt P53667). In words: Navigating the Kinome. Panel member name: LIMK1.
Experiment [22] deals with Serine/threonine-protein kinase TAO1 (Homo sapiens, UniProt Q7L7X3).
Experiment [23] concerns the target Glycogen synthase kinase-3 alpha (Homo sapiens, UniProt P49840).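 Further: GSK3A result taken from a broad kinome-wide kinase panel.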
The target in experiment [24] is Mitogen-activated protein kinase kinase kinase kinase 2 (Homo sapiens, UniProt Q12851).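 Further: measured as one member of a kinome-wide kinase panel, with MAP4K2 as the panel entry.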
Experiment [25] deals with Hepatocyte growth factor receptor (Homo sapiens, UniProt P08581).
The target of experiment [26] is Activated CDC42 kinase 1 (Homo sapiens, UniProt Q07912). Nature of the experiment: Navigating the Kinome. Panel member name: ACK1.
The target of experiment [27] is Platelet-derived growth factor receptor beta (Homo sapiens, UniProt P09619).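 Further: value comes from a kinome panel, with PDGFRB tested as one panel member.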
The target of experiment [28] is Receptor-type tyrosine-protein kinase FLT3 (Homo sapiens, UniProt P36888).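 Further: FLT3 was tested as one member of a kinome-wide kinase panel.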
The target of experiment [29] is Serine/threonine-protein kinase Chk1 (Homo sapiens, UniProt O14757).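 Further: measured as one member of a kinome-wide kinase profiling panel.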
Experiment [30] has as its target Vascular endothelial growth factor receptor 2 (Homo sapiens, UniProt P35968).
The target in experiment [31] is G protein-coupled receptor kinase 5 (Homo sapiens, UniProt P34947). In words: Navigating the Kinome. Panel member name: GPRK5.
The target of experiment [32] is Cyclin-dependent kinase 5 (Homo sapiens, UniProt Q00535).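 Further: CDK5 measured as one member of a kinase profiling panel.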
Experiment [33] addresses Insulin-like growth factor 1 receptor (Homo sapiens, UniProt P08069). Nature of the experiment: Navigating the Kinome. Panel member name: IGF1R.
Experiment [34] deals with Dual specificity tyrosine-phosphorylation-regulated kinase 1B (Homo sapiens, UniProt Q9Y463). In words: Navigating the Kinome. Panel member name: DYRK1B.
Experiment [35] deals with cAMP-dependent protein kinase catalytic subunit PRKX (Homo sapiens, UniProt P51817).
For experiment [36], the target named is Focal adhesion kinase 1 (Homo sapiens, UniProt Q05397).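 Further: measured as one member of a kinome panel.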
Experiment [37] concerns the target Leucine-rich repeat serine/threonine-protein kinase 2 (Homo sapiens, UniProt Q5S007).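 Further: value from a broad kinome-wide panel profiling study in which LRRK2 was one of the kinases tested.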
For experiment [38], the target named is Aurora kinase B (Homo sapiens, UniProt Q96GD4).
Experiment [39] concerns the target Rho-associated protein kinase 1 (Homo sapiens, UniProt Q13464).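 Further: measured within a broad kinome-wide panel profiling many kinases.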
Experiment [40] concerns the target Tyrosine-protein kinase Fyn (Homo sapiens, UniProt P06241).
Experiment [41] deals with Serine/threonine-protein kinase Nek2 (Homo sapiens, UniProt P51955).
Experiment [42] deals with Cyclin-dependent kinase 8 (Homo sapiens, UniProt P49336). In words: Navigating the Kinome. Panel member name: CDK8.
For experiment [43], the target named is Cyclin-dependent kinase 7 (Homo sapiens, UniProt P50613).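 Further: value comes from a kinome-wide kinase profiling panel in which CDK7 is one member.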
For experiment [44], the target named is Cyclin-dependent kinase 9 (Homo sapiens, UniProt P50750).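 Further: value from the CDK9 entry of a kinome-spanning kinase panel.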
For experiment [45], the target named is BDNF/NT-3 growth factors receptor (Homo sapiens, UniProt Q16620).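 Further: NTRK2 measured as one member of a broad kinome-wide kinase profiling panel.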
The target in experiment [46] is Dual specificity protein kinase CLK4 (Homo sapiens, UniProt Q9HAZ1).
Experiment [47] deals with Macrophage colony-stimulating factor 1 receptor (Homo sapiens, UniProt P07333).
Experiment [48] has as its target Dual specificity mitogen-activated protein kinase kinase 2 (Homo sapiens, UniProt P36507). In words: Navigating the Kinome. Panel member name: MAP2K2.
In experiment [49] the target is Dual specificity tyrosine-phosphorylation-regulated kinase 1A (Homo sapiens, UniProt Q13627).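 Further: measured against DYRK1A as one member of a broad kinome profiling panel.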
In experiment [50] the target is Inhibitor of nuclear factor kappa-B kinase subunit epsilon (Homo sapiens, UniProt Q14164). In words: Navigating the Kinome. Panel member name: IKBKE.
Experiment [51] deals with Leukocyte tyrosine kinase receptor (Homo sapiens, UniProt P29376). In words: Navigating the Kinome. Panel member name: LTK.
Experiment [52] addresses Cyclin-dependent kinase 19 (Homo sapiens, UniProt Q9BWU1). Nature of the experiment: Navigating the Kinome. Panel member name: CDC2L6.
Experiment [53] deals with DNA dC->dU-editing enzyme APOBEC-3A (Homo sapiens, UniProt P31941). Nature of the experiment: SAR analysis of small molecule inhibitors of APOBEC3A DNA Deaminase via a fluorescence-based single-stranded DNA deaminase assay - Set 2. The following applies: read-out: IC50_Mean.
Experiment [54] addresses DNA dC->dU-editing enzyme APOBEC-3G (Homo sapiens, UniProt Q9HC16). Nature of the experiment: SAR analysis of small molecule inhibitors of APOBEC3G DNA Deaminase via a fluorescence-based single-stranded DNA deaminase assay - Set 2. Particulars: read-out: IC50_Mean.
For experiment [55], the target named is T3, Apoptotic protease-activating factor 1 (Homo sapiens, UniProt O14727).
T3 sequence (O14727 whole entry): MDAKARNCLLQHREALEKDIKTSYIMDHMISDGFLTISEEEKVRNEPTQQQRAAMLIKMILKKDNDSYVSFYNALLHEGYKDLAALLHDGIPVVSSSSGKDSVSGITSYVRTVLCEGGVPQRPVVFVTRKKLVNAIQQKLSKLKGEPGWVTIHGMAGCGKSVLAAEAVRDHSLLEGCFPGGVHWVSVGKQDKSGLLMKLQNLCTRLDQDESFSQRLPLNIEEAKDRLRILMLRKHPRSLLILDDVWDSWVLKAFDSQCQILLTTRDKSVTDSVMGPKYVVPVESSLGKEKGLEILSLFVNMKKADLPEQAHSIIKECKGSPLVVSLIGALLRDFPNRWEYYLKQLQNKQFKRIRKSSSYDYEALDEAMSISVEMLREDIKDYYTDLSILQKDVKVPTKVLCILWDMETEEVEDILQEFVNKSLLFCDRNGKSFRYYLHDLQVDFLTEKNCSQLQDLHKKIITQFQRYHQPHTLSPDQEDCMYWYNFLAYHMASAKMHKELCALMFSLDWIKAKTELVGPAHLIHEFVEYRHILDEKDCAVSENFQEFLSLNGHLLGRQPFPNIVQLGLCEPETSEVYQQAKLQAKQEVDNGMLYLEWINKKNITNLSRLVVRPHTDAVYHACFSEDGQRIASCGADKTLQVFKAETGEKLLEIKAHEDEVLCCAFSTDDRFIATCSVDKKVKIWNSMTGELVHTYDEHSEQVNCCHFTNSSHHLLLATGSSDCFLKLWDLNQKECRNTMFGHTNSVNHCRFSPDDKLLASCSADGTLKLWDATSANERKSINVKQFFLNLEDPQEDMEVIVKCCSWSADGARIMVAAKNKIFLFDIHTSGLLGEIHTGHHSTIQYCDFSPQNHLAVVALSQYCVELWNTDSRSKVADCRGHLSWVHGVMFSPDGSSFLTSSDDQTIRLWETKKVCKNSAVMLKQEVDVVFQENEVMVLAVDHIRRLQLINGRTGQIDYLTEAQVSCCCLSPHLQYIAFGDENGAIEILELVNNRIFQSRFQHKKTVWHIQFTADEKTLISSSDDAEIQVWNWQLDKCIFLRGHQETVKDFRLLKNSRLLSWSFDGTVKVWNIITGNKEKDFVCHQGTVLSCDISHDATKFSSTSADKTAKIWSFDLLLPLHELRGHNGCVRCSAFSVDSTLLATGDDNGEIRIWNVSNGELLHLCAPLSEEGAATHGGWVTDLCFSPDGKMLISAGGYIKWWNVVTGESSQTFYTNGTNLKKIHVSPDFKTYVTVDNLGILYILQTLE
In words: SAR analysis of small molecule inhibitors of Apaf-1 in a Fluorescent assay. The following applies: read-out: IC50_Mean.

ALK tyrosine kinase receptor, sequence (Q9UM73 whole entry): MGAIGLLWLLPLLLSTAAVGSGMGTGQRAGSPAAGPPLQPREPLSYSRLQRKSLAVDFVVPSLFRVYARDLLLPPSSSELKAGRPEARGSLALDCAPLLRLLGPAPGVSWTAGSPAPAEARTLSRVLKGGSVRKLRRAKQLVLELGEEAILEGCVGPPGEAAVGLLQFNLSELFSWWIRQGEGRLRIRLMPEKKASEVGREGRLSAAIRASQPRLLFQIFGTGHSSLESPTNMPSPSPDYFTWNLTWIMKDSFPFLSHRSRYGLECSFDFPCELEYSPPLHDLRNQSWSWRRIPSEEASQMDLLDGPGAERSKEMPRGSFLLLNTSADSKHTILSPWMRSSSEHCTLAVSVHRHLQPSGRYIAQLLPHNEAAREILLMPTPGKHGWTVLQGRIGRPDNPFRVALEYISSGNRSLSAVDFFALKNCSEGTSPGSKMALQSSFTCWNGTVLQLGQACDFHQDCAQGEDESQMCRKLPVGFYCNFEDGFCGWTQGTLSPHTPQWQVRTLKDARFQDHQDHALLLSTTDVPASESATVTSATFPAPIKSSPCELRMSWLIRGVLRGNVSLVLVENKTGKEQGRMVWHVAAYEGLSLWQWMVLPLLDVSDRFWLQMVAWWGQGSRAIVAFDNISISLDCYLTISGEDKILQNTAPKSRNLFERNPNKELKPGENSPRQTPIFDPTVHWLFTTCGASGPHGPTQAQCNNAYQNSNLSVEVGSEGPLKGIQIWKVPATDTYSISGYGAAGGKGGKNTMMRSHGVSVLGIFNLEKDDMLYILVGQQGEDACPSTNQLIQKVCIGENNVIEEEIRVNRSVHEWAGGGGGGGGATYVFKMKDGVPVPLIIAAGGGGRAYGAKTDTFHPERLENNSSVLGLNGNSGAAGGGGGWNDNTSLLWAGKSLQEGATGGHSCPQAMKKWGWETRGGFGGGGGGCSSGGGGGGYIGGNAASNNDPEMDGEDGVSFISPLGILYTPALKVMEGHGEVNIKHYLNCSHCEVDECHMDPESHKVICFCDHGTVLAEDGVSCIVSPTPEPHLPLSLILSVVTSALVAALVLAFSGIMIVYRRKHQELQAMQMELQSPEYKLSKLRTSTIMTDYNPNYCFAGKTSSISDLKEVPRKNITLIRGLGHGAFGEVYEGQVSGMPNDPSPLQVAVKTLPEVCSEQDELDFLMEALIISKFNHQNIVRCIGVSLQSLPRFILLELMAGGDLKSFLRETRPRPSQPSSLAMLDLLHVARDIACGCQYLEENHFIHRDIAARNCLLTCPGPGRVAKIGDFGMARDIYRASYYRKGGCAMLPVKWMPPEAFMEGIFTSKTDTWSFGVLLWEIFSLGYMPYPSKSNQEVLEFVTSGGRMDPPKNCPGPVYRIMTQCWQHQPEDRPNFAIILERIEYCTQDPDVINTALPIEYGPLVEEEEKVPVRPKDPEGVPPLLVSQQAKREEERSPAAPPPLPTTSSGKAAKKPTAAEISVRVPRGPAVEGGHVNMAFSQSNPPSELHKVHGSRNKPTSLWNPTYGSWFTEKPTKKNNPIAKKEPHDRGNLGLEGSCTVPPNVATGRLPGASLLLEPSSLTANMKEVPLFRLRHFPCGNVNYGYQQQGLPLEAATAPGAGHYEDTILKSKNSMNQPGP
T2 sequence (P78595 whole entry): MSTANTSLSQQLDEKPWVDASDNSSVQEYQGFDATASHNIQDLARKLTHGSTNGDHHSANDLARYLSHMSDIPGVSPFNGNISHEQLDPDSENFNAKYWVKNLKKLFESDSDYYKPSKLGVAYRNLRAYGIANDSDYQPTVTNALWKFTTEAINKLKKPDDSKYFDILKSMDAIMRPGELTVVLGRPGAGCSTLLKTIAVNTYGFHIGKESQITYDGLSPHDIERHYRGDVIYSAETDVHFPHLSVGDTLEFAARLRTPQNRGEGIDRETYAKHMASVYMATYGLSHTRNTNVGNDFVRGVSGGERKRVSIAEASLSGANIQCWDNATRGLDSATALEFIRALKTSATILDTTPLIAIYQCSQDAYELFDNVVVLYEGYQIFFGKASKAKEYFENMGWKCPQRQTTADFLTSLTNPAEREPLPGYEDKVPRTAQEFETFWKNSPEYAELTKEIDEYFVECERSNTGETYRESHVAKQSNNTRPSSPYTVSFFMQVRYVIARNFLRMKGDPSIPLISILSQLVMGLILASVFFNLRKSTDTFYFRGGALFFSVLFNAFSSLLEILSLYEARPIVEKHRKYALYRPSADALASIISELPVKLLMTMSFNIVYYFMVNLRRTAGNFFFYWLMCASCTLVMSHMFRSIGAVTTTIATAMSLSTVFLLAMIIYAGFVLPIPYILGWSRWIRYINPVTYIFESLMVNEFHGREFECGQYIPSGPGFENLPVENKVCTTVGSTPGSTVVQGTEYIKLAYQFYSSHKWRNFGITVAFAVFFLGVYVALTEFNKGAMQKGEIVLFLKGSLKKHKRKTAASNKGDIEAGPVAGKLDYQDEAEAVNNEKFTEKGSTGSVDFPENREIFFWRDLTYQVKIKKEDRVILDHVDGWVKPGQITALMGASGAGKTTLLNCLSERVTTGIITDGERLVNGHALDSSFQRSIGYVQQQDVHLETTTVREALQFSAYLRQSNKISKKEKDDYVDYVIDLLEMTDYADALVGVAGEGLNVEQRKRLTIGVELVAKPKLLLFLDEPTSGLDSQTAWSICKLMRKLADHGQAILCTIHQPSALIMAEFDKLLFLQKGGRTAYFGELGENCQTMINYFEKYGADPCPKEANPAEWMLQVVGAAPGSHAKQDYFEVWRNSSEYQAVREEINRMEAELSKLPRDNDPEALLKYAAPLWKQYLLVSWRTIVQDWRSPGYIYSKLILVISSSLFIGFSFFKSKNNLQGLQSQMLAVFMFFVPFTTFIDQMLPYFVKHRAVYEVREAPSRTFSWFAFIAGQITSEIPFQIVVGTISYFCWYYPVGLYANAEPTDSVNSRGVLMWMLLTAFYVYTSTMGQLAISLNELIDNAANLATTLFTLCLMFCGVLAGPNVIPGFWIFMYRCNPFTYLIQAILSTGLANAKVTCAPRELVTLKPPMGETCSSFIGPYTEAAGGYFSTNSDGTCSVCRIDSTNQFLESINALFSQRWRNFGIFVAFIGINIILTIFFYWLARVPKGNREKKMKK
Leukocyte tyrosine kinase receptor, sequence (P29376 whole entry): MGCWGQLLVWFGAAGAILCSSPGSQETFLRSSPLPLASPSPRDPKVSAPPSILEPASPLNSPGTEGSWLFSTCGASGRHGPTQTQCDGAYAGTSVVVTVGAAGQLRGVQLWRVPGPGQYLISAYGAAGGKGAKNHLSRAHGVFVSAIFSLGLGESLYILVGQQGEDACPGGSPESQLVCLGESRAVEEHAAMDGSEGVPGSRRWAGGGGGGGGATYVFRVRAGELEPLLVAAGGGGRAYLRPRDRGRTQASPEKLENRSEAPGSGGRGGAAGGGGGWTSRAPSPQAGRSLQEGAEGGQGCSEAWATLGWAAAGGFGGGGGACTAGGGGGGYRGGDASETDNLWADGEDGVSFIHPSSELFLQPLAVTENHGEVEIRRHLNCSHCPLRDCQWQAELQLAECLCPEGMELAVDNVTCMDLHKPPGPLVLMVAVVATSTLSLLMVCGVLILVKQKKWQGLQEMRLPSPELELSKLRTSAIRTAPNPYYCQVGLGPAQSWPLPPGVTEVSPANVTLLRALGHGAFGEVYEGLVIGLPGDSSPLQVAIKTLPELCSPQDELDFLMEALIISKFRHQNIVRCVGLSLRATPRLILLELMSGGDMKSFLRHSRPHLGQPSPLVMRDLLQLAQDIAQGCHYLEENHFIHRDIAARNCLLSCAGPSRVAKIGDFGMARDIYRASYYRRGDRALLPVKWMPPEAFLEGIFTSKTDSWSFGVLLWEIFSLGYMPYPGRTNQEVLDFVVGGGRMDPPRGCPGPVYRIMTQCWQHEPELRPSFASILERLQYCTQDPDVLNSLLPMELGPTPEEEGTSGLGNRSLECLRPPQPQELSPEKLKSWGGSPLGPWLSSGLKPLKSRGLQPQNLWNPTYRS
Activin receptor type-1, sequence (Q04771 whole entry): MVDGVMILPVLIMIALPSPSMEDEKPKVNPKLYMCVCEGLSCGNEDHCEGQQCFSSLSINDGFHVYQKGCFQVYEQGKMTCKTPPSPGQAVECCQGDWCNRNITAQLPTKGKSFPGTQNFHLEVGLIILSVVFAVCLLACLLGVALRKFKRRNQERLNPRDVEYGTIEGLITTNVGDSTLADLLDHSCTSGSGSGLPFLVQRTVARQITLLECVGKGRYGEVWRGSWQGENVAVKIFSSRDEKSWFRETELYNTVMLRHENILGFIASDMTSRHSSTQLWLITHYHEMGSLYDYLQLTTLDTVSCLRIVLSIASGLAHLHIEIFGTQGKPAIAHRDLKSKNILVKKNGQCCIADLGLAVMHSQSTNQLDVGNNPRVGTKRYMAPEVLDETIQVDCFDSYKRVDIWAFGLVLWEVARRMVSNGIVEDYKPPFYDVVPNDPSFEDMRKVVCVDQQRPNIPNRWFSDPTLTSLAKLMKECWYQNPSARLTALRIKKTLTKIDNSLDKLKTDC
cAMP-dependent protein kinase catalytic subunit PRKX, sequence (P51817 whole entry): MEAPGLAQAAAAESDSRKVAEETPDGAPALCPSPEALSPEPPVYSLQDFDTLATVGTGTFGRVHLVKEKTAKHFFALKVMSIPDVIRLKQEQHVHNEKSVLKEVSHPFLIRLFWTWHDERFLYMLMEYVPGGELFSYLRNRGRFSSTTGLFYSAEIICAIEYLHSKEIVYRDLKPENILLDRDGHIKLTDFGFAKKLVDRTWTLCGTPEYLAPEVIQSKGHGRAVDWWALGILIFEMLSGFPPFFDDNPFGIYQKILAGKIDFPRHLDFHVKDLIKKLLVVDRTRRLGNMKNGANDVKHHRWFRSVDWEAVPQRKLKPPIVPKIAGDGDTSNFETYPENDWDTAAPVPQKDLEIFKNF
DNA dC->dU-editing enzyme APOBEC-3A, sequence (P31941 whole entry): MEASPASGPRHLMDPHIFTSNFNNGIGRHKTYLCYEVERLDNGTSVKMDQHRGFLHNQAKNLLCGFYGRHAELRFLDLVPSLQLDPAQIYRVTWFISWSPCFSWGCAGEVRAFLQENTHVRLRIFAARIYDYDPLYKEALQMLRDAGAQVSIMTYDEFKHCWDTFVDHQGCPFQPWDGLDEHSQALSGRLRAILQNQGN

`NC1=NC[C@@H](Cc2ccc(O)cc2)N1CCCCC1CCCCC1`: the IC50 in [1] is > 20000 nM (inactive). Also, the EC50 in experiment [2] was 27300 nM (active); in [3], 16300 nM (active).

By Ki is commonly meant the dissociation constant of the complex between target and ligand, obtained from inhibition or displacement. As for `NC(=O)c1ccc2nc(-c3ccc([N+](=O)[O-])o3)cn2c1`, the Ki in experiment [4] is 251 nM (active); in [5], 631 nM (active); in [6], 1580 nM (active); in experiment [7] it was 1260 nM (active); in experiment [8], 158 nM (active); in experiment [9], 631 nM (active). Moreover, the Ki was 316 nM (active) in [10]; 100 nM (active) in experiment [11]; > 6310 nM (inactive) in experiment [12]; 251 nM (active) in experiment [13]; 200 nM (active) in experiment [14]; 1580 nM (active) in experiment [15]. In addition, the Ki in [16] is 631 nM (active); in experiment [17], 126 nM (active); in experiment [18], 794 nM (active); in experiment [19] it was 126 nM (active); in experiment [20] it was 794 nM (active); in [21] it was 158 nM (active). For the same compound, the Ki in experiment [22] is 1260 nM (active); in experiment [23], 1000 nM (active); in [24], 251 nM (active); in [25], 50.1 nM (active); in [26] it was 251 nM (active); in [27], 1000 nM (active). Further, the Ki in experiment [28] was 2510 nM (active); in experiment [29], 50.1 nM (active); in experiment [30] it was > 2510 nM (inactive); in experiment [31], 158 nM (active); in experiment [32], 126 nM (active); in [33], > 2510 nM (inactive). Moreover, the Ki in experiment [34] is 79.4 nM (active); in [35], 631 nM (active); in [36], 316 nM (active); in experiment [37], 126 nM (active); in experiment [38], 251 nM (active); in [39], 1000 nM (active). Also, the Ki in experiment [40] is 2000 nM (active); in experiment [41] it was 63.1 nM (active); in experiment [42] it was 126 nM (active); in experiment [43], 631 nM (active); in experiment [44], 39.8 nM (active); in experiment [45] it was > 3980 nM (inactive). Also, the inhibitory constant (Ki) in experiment [46] was 20 nM (active); in [47], 1260 nM (active); in [48], 1000 nM (active); in experiment [49], 31.6 nM (active); in experiment [50] it was 126 nM (active); in experiment [51] it was 79.4 nM (active).

In the case of `CN(C)CCc1ccc(Nc2nccc(-c3c(-c4cccc(C(O)CO)c4)nc4ccccn34)n2)cc1` (stereo unspecified), the Ki in experiment [9] and in [52] was 3160 nM (active) in each case.

As to `CCc1nc2sc3c(c2c2nnc(SC)n12)CCCC3`, the IC50 in [53] and in [54] was > 99000 nM (inactive) in each case.

Consider `Cn1cc(C(CC(=O)c2ccc(C(C)(C)C)cc2)C(=O)O)c2ccccc21` (stereo unspecified), for which, in experiment [55], the IC50 was 90500 nM (active).
